# “And” between values parts separate entries of the source, which are not always exact repeats. Equal entries are not always repeated.
# Tested on: diamondback moth (Plutella xylostella)
# Assay: Test A: control of diamondback moth on radish plant, foliar spray, plant feeding damage assessed visually
# Assay type: in vivo
# Settings: Cmpd 8 alone at 20 ppm; foliar spray, 6 days; (0 to 10 rating) × 10; mean of 3 replicates
# Excerpt: (§1) The presence of a synergistic effect between two active ingredients can be established with the aid of the Colby equation (see Colby, S. R., “Calculating Synergistic and Antagonistic Responses of Herbicide Combinations”, Weeds 1967, 15, 20-22):
# (§2) Using the method of Colby, the presence of a synergistic interaction between two active ingredients is established by first calculating the predicted activity, p, of the mixture based on activities of the two components applied alone. In the equation above, A is the biological activity in percentage control of one component applied alone at rate x. The B term is the biological activity in percentage control of the second component applied at rate y. The equation calculates p, the predicted biological activity of the mixture of A at rate x with B at rate y if their effects are strictly additive and no interaction has occurred. If the experimentally established effect of the mixture is greater than the predicted activity, p, synergism is present. To use the Colby equation the active ingredients of the mixture are applied in a test separately as well as in combination.
# For evaluating control of diamondback moth (Plutella xylostella) the test unit consisted of a small open container with a 12-14-day-old radish plant inside. This was pre-infested with ˜50 neonate larvae that were dispensed into the test unit via corn cob grits using a bazooka inoculator. The larvae moved onto the test plant after being dispensed into the test unit.
# (§3) Test compounds and compositions were formulated using a solution containing 10% acetone, 90% water and 300 ppm X-77® Spreader Lo-Foam Formula non-ionic surfactant containing alkylarylpolyoxyethylene, free fatty acids, glycols and isopropanol (Loveland Industries, Inc. Greeley, Colo., USA). The formulated compounds or compositions were applied in 1 mL of liquid through a SUJ2 atomizer nozzle with 1/8 JJ custom body (Spraying Systems Co. Wheaton, Ill., USA) positioned 1.27 cm (0.5 inches) above the top of each test unit. Tests were replicated three times. After spraying of the formulated test compound or compositions, each test unit was allowed to dry for 1 h and then a black, screened cap was placed on top. The test units were held for 6 days in a growth chamber at 25° C. and 70% relative humidity. Plant feeding damage was then visually assessed based on foliage consumed.
# Compound 8 was applied at a rate of 20 ppm.
row,Compound,"Plant Protection, Observed, Cmpd 8"
1,COc1ccc(C(F)(F)F)cc1-c1c([O-])[n+](Cc2ccc(F)nc2)c2ccccn2c1=O [Compound 8],13 (5×) and 0 (11×) and 40 (6×) and 17 (6×)

# Same assay, conditions: Cmpd 123 alone at 0.1 ppm; foliar spray, 6 days; (0 to 10 rating) × 10; mean of 3 replicates
row,Compound,"Plant Protection, Observed, Cmpd 123"
1,O=c1c(-c2cc(OC(F)(F)F)cc(-c3ccc(F)nc3)c2)c([O-])[n+](Cc2cnc(Cl)s2)c2ccccn12 [Compound 123],33 (5×) and 17 (11×) and 97 (6×) and 80 (6×)

# Same assay, conditions: in vivo
row,Compound,"Plant Protection, Observed, Cmpd A"
1,N#CCNC(=O)c1cnccc1C(F)(F)F [flonicamid],10
2,COC(=O)N(C(=O)N1CO[C@@]2(C(=O)OC)Cc3cc(Cl)ccc3C2=N1)c1ccc(OC(F)(F)F)cc1 [indoxacarb],40
3,CC(COc1ccc(Oc2ccccc2)cc1)Oc1ccccn1 (centres unmarked) [pyriproxifen],0
4,abamectin,50
5,spinetoram,40

# Tested on: green peach aphid (Myzus persicae)
# Assay: not given
# Assay type: in vivo
# Settings: Cmpd 8 alone at 250 ppm; spray, 6 days; mean of 3 replicates
# Excerpt: as §1, §2, §3
# For evaluating control of green peach aphid (Myzus persicae) through contact and/or systemic means, the test unit consisted of a small open container with a 12-15-day-old radish plant inside. This was pre-infested by placing on a leaf of the test plant 30-40 aphids on a piece of leaf excised from a culture plant (cut-leaf method). The aphids moved onto the test plant as the leaf piece desiccated. After pre-infestation, the soil of the test unit was covered with a layer of sand.
# Test compounds and compositions were formulated and sprayed as described for Test A. The applications were replicated three times. After spraying of the formulated test compound or composition, each test unit was allowed to dry for 1 h and then a black, screened cap was placed on top. The test units were held for 6 days in a growth chamber at 19-21° C. and 50-70% relative humidity. Each test unit was then visually assessed for insect mortality.
# The results calculated as mean averages of results from the three replicates are listed in Table B. Compound 123 was applied at a rate of 50 ppm. Compound 8 was applied at a rate of 250 ppm.
row,Compound,"Percent Mortality, Observed, Cmpd 8"
1,COc1ccc(C(F)(F)F)cc1-c1c([O-])[n+](Cc2ccc(F)nc2)c2ccccn2c1=O [Compound 8],25% and 13% and 10% and 15%

# Same assay, conditions: Cmpd 123 alone at 50 ppm; spray, 6 days; mean of 3 replicates
row,Compound,"Percent Mortality, Observed, Cmpd 123"
1,O=c1c(-c2cc(OC(F)(F)F)cc(-c3ccc(F)nc3)c2)c([O-])[n+](Cc2cnc(Cl)s2)c2ccccn12 [Compound 123],15% and 18% and 22% and 9% and 66%

# Same assay, conditions: in vivo
row,Compound,"Percent Mortality, Observed, Cmpd A [%]"
1,CC1(C)[C@H](C(=O)O[C@H](C#N)c2cccc(Oc3ccccc3)c2)[C@@H]1/C=C(\Cl)C(F)(F)F (racemic) [lambda-cyhalothrin],39
2,C/C(=N\C#N)N(C)Cc1ccc(Cl)nc1 [acetamiprid],9
3,CC(C)N1C(=O)N(c2ccccc2)CS/C1=N\C(C)(C)C [buprofezin],14
4,CN(C)C(CSC(N)=O)CSC(N)=O [cartap],15
5,CNC(=O)c1cc(Cl)cc(C)c1NC(=O)c1cc(Br)nn1-c1ncccc1Cl [chlorantraniliprole],11
6,CCOCn1c(-c2ccc(Cl)cc2)c(C#N)c(Br)c1C(F)(F)F [chlorfenapyr],54
7,CCOP(=S)(OCC)Oc1nc(Cl)c(Cl)cc1Cl [chlorpyrifos],18
8,CN/C(=N\[N+](=O)[O-])NCc1cnc(Cl)s1 [clothianidin],16
9,CNC(=O)c1cc(C#N)cc(C)c1NC(=O)c1cc(Br)nn1-c1ncccc1Cl [cyantraniliprole],10
10,CN/C(=N/CC1CCOC1)N[N+](=O)[O-] (centres unmarked) [dinotefuran],33
11,N#Cc1nn(-c2c(Cl)cc(C(F)(F)F)cc2Cl)c(N)c1[S+]([O-])C(F)(F)F (centres unmarked) [fipronil],87
12,N#CCNC(=O)c1cnccc1C(F)(F)F [flonicamid],14
13,Cc1cc(C(F)(C(F)(F)F)C(F)(F)F)ccc1NC(=O)c1cccc(I)c1C(=O)NC(C)(C)CS(C)(=O)=O [flubendiamide],5
14,COC(=O)N(C(=O)N1CO[C@@]2(C(=O)OC)Cc3cc(Cl)ccc3C2=N1)c1ccc(OC(F)(F)F)cc1 [indoxacarb],32
15,CNC(=O)ON=C(C)SC [methomyl],28
16,COc1cccc(C(=O)NN(C(=O)c2cc(C)cc(C)c2)C(C)(C)C)c1C [methoxyfenozide],16
17,O=C(NC(=O)c1c(F)cccc1F)Nc1ccc(OC(F)(F)C(F)OC(F)(F)F)c(Cl)c1 (centres unmarked) [novaluron],7
18,CNC(=O)O/N=C(\SC)C(=O)N(C)C [oxamyl],23
19,CC1=NNC(=O)N(/N=C/c2cccnc2)C1 [pymetrozine],28
20,FC(F)(F)c1ccc(OCCCOc2c(Cl)cc(OCC=C(Cl)Cl)cc2Cl)nc1 [pyridalyl],13
21,CC(COc1ccc(Oc2ccccc2)cc1)Oc1ccccn1 (centres unmarked) [pyriproxifen],10
22,CCOC(=O)OC1=C(c2cc(C)ccc2C)C(=O)N[C@]12CC[C@@H](OC)CC2 [spirotetramat],8
23,N#C/N=C1\SCCN1Cc1ccc(Cl)nc1 [thiacloprid],12
24,CN1COCN(Cc2cnc(Cl)s2)/C1=N\[N+](=O)[O-] [thiamethoxam],40
25,CS/C(C)=N\OC(=O)N(C)SN(C)C(=O)O/N=C(\C)SC [thiodicarb],25
26,CCc1nn(C)c(C(=O)NCc2ccc(Oc3ccc(C)cc3)cc2)c1Cl [tolfenpyrad],77
27,abamectin,91
28,spinetoram,10

# Tested on: corn planthopper (Peregrinus maidis)
# Assay: not given
# Assay type: in vivo
# Settings: Cmpd 8 alone at 0.2 ppm; spray, 6 days; mean of 3 replicates
# Excerpt: as §1, §2, §3
# For evaluating control of corn planthopper (Peregrinus maidis) through contact and/or systemic means, the test unit consisted of a small open container with a 3-4-day-old maize plant (spike) inside. White sand was added to the top of the soil prior to application. Test compounds and compositions were formulated, sprayed, and replicated three times as described for Test A. After spraying, the test units were allowed to dry for 1 h before they were post-infested with ˜15-20 nymphs (18 to 21 day old) by sprinkling them onto the sand with a salt shaker. A black, screened cap was placed on the top of the cylinder. The test units were held for 6 days in a growth chamber at 22-24° C. and 50-70% relative humidity. Each test unit was then visually assessed for insect mortality.
# Compound 123 was applied at a rate of 2.5 ppm. Compound 8 was applied at a rate of 0.2 ppm.
row,Compound,"Percent Mortality, Observed, Cmpd 8"
1,COc1ccc(C(F)(F)F)cc1-c1c([O-])[n+](Cc2ccc(F)nc2)c2ccccn2c1=O [Compound 8],38% and 71% and 8% and 55% and 76%

# Same assay, conditions: Cmpd 123 alone at 2.5 ppm; spray, 6 days; mean of 3 replicates
row,Compound,"Percent Mortality, Observed, Cmpd 123"
1,O=c1c(-c2cc(OC(F)(F)F)cc(-c3ccc(F)nc3)c2)c([O-])[n+](Cc2cnc(Cl)s2)c2ccccn12 [Compound 123],28% and 21% and 8% and 42% and 68%

# Same assay, conditions: in vivo
row,Compound,"Percent Mortality, Observed, Cmpd A [%]"
1,CC1(C)[C@H](C(=O)O[C@H](C#N)c2cccc(Oc3ccccc3)c2)[C@@H]1/C=C(\Cl)C(F)(F)F (racemic) [lambda-cyhalothrin],45
2,C/C(=N\C#N)N(C)Cc1ccc(Cl)nc1 [acetamiprid],32
3,CC(C)N1C(=O)N(c2ccccc2)CS/C1=N\C(C)(C)C [buprofezin],44
4,CN(C)C(CSC(N)=O)CSC(N)=O [cartap],40
5,CNC(=O)c1cc(Cl)cc(C)c1NC(=O)c1cc(Br)nn1-c1ncccc1Cl [chlorantraniliprole],33
6,CCOCn1c(-c2ccc(Cl)cc2)c(C#N)c(Br)c1C(F)(F)F [chlorfenapyr],81
7,CCOP(=S)(OCC)Oc1nc(Cl)c(Cl)cc1Cl [chlorpyrifos],48
8,CN/C(=N\[N+](=O)[O-])NCc1cnc(Cl)s1 [clothianidin],35
9,CNC(=O)c1cc(C#N)cc(C)c1NC(=O)c1cc(Br)nn1-c1ncccc1Cl [cyantraniliprole],67
10,CN/C(=N/CC1CCOC1)N[N+](=O)[O-] (centres unmarked) [dinotefuran],42
11,N#Cc1nn(-c2c(Cl)cc(C(F)(F)F)cc2Cl)c(N)c1[S+]([O-])C(F)(F)F (centres unmarked) [fipronil],21
12,N#CCNC(=O)c1cnccc1C(F)(F)F [flonicamid],70
13,Cc1cc(C(F)(C(F)(F)F)C(F)(F)F)ccc1NC(=O)c1cccc(I)c1C(=O)NC(C)(C)CS(C)(=O)=O [flubendiamide],42
14,COC(=O)N(C(=O)N1CO[C@@]2(C(=O)OC)Cc3cc(Cl)ccc3C2=N1)c1ccc(OC(F)(F)F)cc1 [indoxacarb],21
15,CNC(=O)ON=C(C)SC [methomyl],80
16,COc1cccc(C(=O)NN(C(=O)c2cc(C)cc(C)c2)C(C)(C)C)c1C [methoxyfenozide],33
17,O=C(NC(=O)c1c(F)cccc1F)Nc1ccc(OC(F)(F)C(F)OC(F)(F)F)c(Cl)c1 (centres unmarked) [novaluron],51
18,CNC(=O)O/N=C(\SC)C(=O)N(C)C [oxamyl],32
19,CC1=NNC(=O)N(/N=C/c2cccnc2)C1 [pymetrozine],76
20,FC(F)(F)c1ccc(OCCCOc2c(Cl)cc(OCC=C(Cl)Cl)cc2Cl)nc1 [pyridalyl],62
21,CC(COc1ccc(Oc2ccccc2)cc1)Oc1ccccn1 (centres unmarked) [pyriproxifen],20
22,CCOC(=O)OC1=C(c2cc(C)ccc2C)C(=O)N[C@]12CC[C@@H](OC)CC2 [spirotetramat],65
23,N#C/N=C1\SCCN1Cc1ccc(Cl)nc1 [thiacloprid],60
24,CN1COCN(Cc2cnc(Cl)s2)/C1=N\[N+](=O)[O-] [thiamethoxam],29
25,CS/C(C)=N\OC(=O)N(C)SN(C)C(=O)O/N=C(\C)SC [thiodicarb],64
26,CCc1nn(C)c(C(=O)NCc2ccc(Oc3ccc(C)cc3)cc2)c1Cl [tolfenpyrad],98
27,abamectin,90
28,spinetoram,58

# Tested on: Western Flower Thrip (Frankliniellla occidentalis)
# Assay: Test D: control of Western Flower Thrip on Soleil bean plant through contact and/or systemic means, plant protection
# Assay type: in vivo
# Settings: Cmpd 8 alone at 250 ppm; spray, 7 days; (0 to 10 rating) × 10; mean of 3 replicates
# Excerpt: as §1, §2, §3
# For evaluating control of the Western Flower Thrip (Frankliniellla occidentalis) through contact and/or systemic means, the test unit consisted of a small open container with a 5-7-day-old Soleil bean plant inside.
# Test compounds and compositions were formulated, sprayed, and replicated three times as described for Test A. After spraying, the test units were allowed to dry for 1 hour and then 22-27 adult thrips were added to the unit and then a black, screened cap was placed on top. The test units were held for 7 days at 25° C. and 45-55% relative humidity.
# Compound 8 was applied at a rate of 250 ppm.
row,Compound,"Plant Protection, Observed, Cmpd 8"
1,COc1ccc(C(F)(F)F)cc1-c1c([O-])[n+](Cc2ccc(F)nc2)c2ccccn2c1=O [Compound 8],53 (5×) and 37 (5×) and 50 (6×) and 10 (6×) and 30 (6×)

# Same assay, conditions: Cmpd 123 alone at 25 ppm; spray, 7 days; (0 to 10 rating) × 10; mean of 3 replicates
row,Compound,"Plant Protection, Observed, Cmpd 123"
1,O=c1c(-c2cc(OC(F)(F)F)cc(-c3ccc(F)nc3)c2)c([O-])[n+](Cc2cnc(Cl)s2)c2ccccn12 [Compound 123],23 (5×) and 30 (5×) and 33 (6×) and 3 (6×) and 40 (6×)

# Same assay, conditions: in vivo
row,Compound,"Plant Protection, Observed, Cmpd A"
1,N#CCNC(=O)c1cnccc1C(F)(F)F [flonicamid],60
2,COC(=O)N(C(=O)N1CO[C@@]2(C(=O)OC)Cc3cc(Cl)ccc3C2=N1)c1ccc(OC(F)(F)F)cc1 [indoxacarb],23
3,CC(COc1ccc(Oc2ccccc2)cc1)Oc1ccccn1 (centres unmarked) [pyriproxifen],7
4,abamectin,20
5,spinetoram,27

# From US9314025B2, “Mixtures of mesoionic pesticides” (E I DU PONT DE NEMOURS AND COMPANY, priority 2009, dated 2016)
